Source: PubChem BioAssay AID192 (DTP/NCI, 2004)
Inconclusive results and toxic doses are left out.

Tested on: BDF1 mice, B16 melanoma ip, median survival T/C
Assay: NCI In Vivo Anticancer Drug Screen. Data for tumor model B16 Melanoma (intraperitoneal) in B6D2F1 (BDF1) mice
Settings: endpoint: median survival time, higher = longer survival
Method in brief: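 Survival or tumor size is measured after treatment of tumor-bearing mice and normalised to the vehicle-treated control group.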

[1] = dose: 50.0 mg/kg/injection, schedule: Q01DX009 (ip), vehicle: saline with Tween-80
[2] = dose: 100.0 mg/kg/injection, schedule: Q01DX009 (ip), vehicle: saline with Tween-80
[3] = dose: 200.0 mg/kg/injection, schedule: Q01DX009 (ip), vehicle: saline with Tween-80
[4] = dose: 25.0 mg/kg/injection, schedule: Q01DX009 (ip), vehicle: saline with Tween-80
[5] = dose: 400.0 mg/kg/injection, schedule: Q01DX009 (ip), vehicle: saline with Tween-80
[6] = dose: 100.0 mg/kg/injection, schedule: Q04DX003 (ip), vehicle: Klucel (hydroxypropylcellulose) (HPC)
[7] = dose: 4.0 mg/kg/injection, schedule: Q01DX009 (ip), vehicle: saline with Tween-80

SMILES: CC(=N\O)/C(C)=N/O.CC(=N\O)/C(C)=N/O.CC(=N\O)/C(C)=N/O.CC(=N\O)/C(C)=N/O.[Cu].[Cu]
- T/C (dose: 0.78 mg/kg/injection, schedule: Q01DX009 (ip), vehicle: Klucel (hydroxypropylcellulose) (HPC)): 93 % of control
- T/C (dose: 1.56 mg/kg/injection, schedule: Q01DX009 (ip), vehicle: Klucel (hydroxypropylcellulose) (HPC)): 103 % of control
- T/C (dose: 3.13 mg/kg/injection, schedule: Q01DX009 (ip), vehicle: Klucel (hydroxypropylcellulose) (HPC)): 103 % of control

SMILES: Cc1cc(N(CCCl)CCCl)ccc1C=Nc1cccnc1
- T/C [1]: 119 % of control
- T/C [2]: 124 % of control

SMILES: COc1ccc([Se][Se]c2ccc(OC)cc2NC(C)=O)c(NC(C)=O)c1
- T/C [1]: 102 % of control
- T/C [2]: 92 % of control
- T/C [3]: 100 % of control

SMILES: ClCc1cccc2c(CCl)cccc12
- T/C (dose: 6.25 mg/kg/injection, schedule: Q01DX009 (ip), vehicle: saline with Tween-80): 98 % of control
- T/C (dose: 12.5 mg/kg/injection, schedule: Q01DX009 (ip), vehicle: saline with Tween-80): 98 % of control
- T/C [4]: 102 % of control
- T/C (dose: 25.0 mg/kg/injection, schedule: Q01DX009 (ip), vehicle: suspension in saline): 100 % of control
- T/C (dose: 50.0 mg/kg/injection, schedule: Q01DX009 (ip), vehicle: suspension in saline): 107 % of control
- T/C (dose: 100.0 mg/kg/injection, schedule: Q01DX009 (ip), vehicle: suspension in saline): 90 % of control

SMILES: Cn1nnnc1N/N=C/c1ccccc1
- T/C [2]: 93 % of control
- T/C [3]: 95 % of control
- T/C [5]: 90 % of control

SMILES: Cc1cccc(C)c1NC(=O)Nc1ccc2c(c1)OCO2
- T/C [6]: 92 % of control

SMILES: O=C(NCCCCC(NC(=O)c1ccccc1)C(=O)O)OCc1ccccc1 (stereo not drawn)
- T/C [1]: 101 % of control
- T/C [2]: 96 % of control
- T/C [3]: 95 % of control
- T/C [5]: 86 % of control

SMILES: CCCCCC(O)C1C(=O)OC(C)C(O)/C=C/C=C/C=C/C=C/C=C(\C)C(O)C(O)C(O)CC(O)CC(O)CC(O)CC(O)CC1O (stereo not drawn)
- T/C (dose: 0.78 mg/kg/injection, schedule: Q01DX009 (ip), vehicle: saline): 124 % of control
- T/C (dose: 1.0 mg/kg/injection, schedule: Q01DX009 (ip), vehicle: saline): 116 % of control
- T/C (dose: 1.56 mg/kg/injection, schedule: Q01DX009 (ip), vehicle: saline): 119 % of control
- T/C (dose: 1.78 mg/kg/injection, schedule: Q01DX009 (ip), vehicle: saline): 122 % of control
- T/C (dose: 2.0 mg/kg/injection, schedule: Q01DX009 (ip), vehicle: saline): 123 % of control
- T/C (dose: 3.12 mg/kg/injection, schedule: Q01DX009 (ip), vehicle: saline): 103 % of control
- T/C (dose: 4.0 mg/kg/injection, schedule: Q01DX009 (ip), vehicle: saline): 154 % of control

SMILES: NNC(=O)c1ccccc1O
- T/C [4]: 100 % of control
- T/C [1]: 95 % of control
- T/C [2]: 95 % of control

SMILES: C[Si](C)(C)c1cc(F)c(F)c(F)c1F
- T/C [6]: 90 % of control
- T/C (dose: 200.0 mg/kg/injection, schedule: Q04DX003 (ip), vehicle: Klucel (hydroxypropylcellulose) (HPC)): 92 % of control
- T/C (dose: 400.0 mg/kg/injection, schedule: Q04DX003 (ip), vehicle: Klucel (hydroxypropylcellulose) (HPC)): 94 % of control

SMILES: CCc1ccc(/C=C/c2ccc(O)c3ncccc23)[n+](C)c1
- T/C [7]: 93 % of control
- T/C (dose: 8.0 mg/kg/injection, schedule: Q01DX009 (ip), vehicle: saline with Tween-80): 93 % of control
- T/C (dose: 16.0 mg/kg/injection, schedule: Q01DX009 (ip), vehicle: saline with Tween-80): 102 % of control
- T/C (dose: 32.0 mg/kg/injection, schedule: Q01DX009 (ip), vehicle: saline with Tween-80): 114 % of control

SMILES: COc1cc2cc(c1Cl)N(C)C(=O)C[C@H](OC(=O)[C@H](C)N(C)C(C)=O)[C@]1(C)O[C@H]1[C@H](C)[C@@H]1C[C@@](O)(NC(=O)O1)[C@H](OC)C=C/C=C(\C)C2
- T/C (dose: 0.5 micrograms/kg/injection, schedule: Q01DX009 (ip), vehicle: saline): 110 % of control
- T/C (dose: 1.0 micrograms/kg/injection, schedule: Q01DX009 (ip), vehicle: saline + alcohol): 163 % of control
- T/C (dose: 2.0 micrograms/kg/injection, schedule: Q01DX009 (ip), vehicle: saline): 117 % of control
- T/C (dose: 2.0 micrograms/kg/injection, schedule: Q04DX003 (ip), vehicle: saline): 95 % of control
- T/C (dose: 4.0 micrograms/kg/injection, schedule: Q01DX009 (ip), vehicle: saline): 105 % of control
- T/C (dose: 4.0 micrograms/kg/injection, schedule: Q04DX003 (ip), vehicle: saline): 100 % of control
- T/C (dose: 8.0 micrograms/kg/injection, schedule: Q01DX009 (ip), vehicle: saline): 155 % of control
- T/C (dose: 8.0 micrograms/kg/injection, schedule: Q04DX003 (ip), vehicle: saline): 97 % of control
- T/C (dose: 16.0 micrograms/kg/injection, schedule: Q01DX009 (ip), vehicle: saline): 157 % of control
- T/C (dose: 16.0 micrograms/kg/injection, schedule: Q04DX003 (ip), vehicle: saline): 108 % of control
- T/C (dose: 32.0 micrograms/kg/injection, schedule: Q01DX009 (ip), vehicle: saline): 97 % of control
- T/C (dose: 32.0 micrograms/kg/injection, schedule: Q04DX003 (ip), vehicle: saline): 100 % of control

SMILES: Cc1ccc([N+](=O)[O-])c(C)c1
- T/C (dose: 100.0 mg/kg/injection, schedule: Q01DX009 (ip), vehicle: Klucel (hydroxypropylcellulose) (HPC)): 94 % of control
- T/C (dose: 200.0 mg/kg/injection, schedule: Q01DX009 (ip), vehicle: Klucel (hydroxypropylcellulose) (HPC)): 102 % of control
- T/C (dose: 400.0 mg/kg/injection, schedule: Q01DX009 (ip), vehicle: Klucel (hydroxypropylcellulose) (HPC)): 94 % of control

SMILES: CCOCCN1CCN(CCCN2c3ccccc3Sc3ccc(C(F)(F)F)cc32)CC1
- T/C (dose: 0.09 mg/kg/injection, schedule: Q01DX009 (ip), vehicle: water): 105 % of control
- T/C (dose: 0.19 mg/kg/injection, schedule: Q01DX009 (ip), vehicle: water): 113 % of control
- T/C (dose: 0.39 mg/kg/injection, schedule: Q01DX009 (ip), vehicle: water): 100 % of control

SMILES: CC(=O)[S][Pb]([c]1ccccc1)([c]1ccccc1)[c]1ccccc1
- T/C (dose: 0.5 mg/kg/injection, schedule: Q01DX009 (ip), vehicle: saline with Tween-80): 97 % of control
- T/C (dose: 1.0 mg/kg/injection, schedule: Q01DX009 (ip), vehicle: saline with Tween-80): 93 % of control
- T/C (dose: 2.0 mg/kg/injection, schedule: Q01DX009 (ip), vehicle: saline with Tween-80): 92 % of control
- T/C [7]: 101 % of control

SMILES: O=[N+]([O-])c1ccc2ccccc2c1-c1c([N+](=O)[O-])ccc2ccccc12
- T/C [1]: 97 % of control
- T/C [2]: 101 % of control
- T/C [3]: 97 % of control

SMILES: CCC1CCCCC1=O (stereo not drawn)
- T/C (dose: 44.0 mg/kg/injection, schedule: Q01DX009 (ip), vehicle: saline with Tween-80): 97 % of control
- T/C (dose: 67.0 mg/kg/injection, schedule: Q01DX009 (ip), vehicle: saline with Tween-80): 95 % of control
- T/C [2]: 100 % of control
- T/C (dose: 150.0 mg/kg/injection, schedule: Q01DX009 (ip), vehicle: saline with Tween-80): 102 % of control
